Several values for one entry are separate records, joined by “and”; a condition that tells them apart may be missing. Equal values may be shown once. Read-outs that look alike come from different tables or passages of the source.
Tests used:
[1] = test system: influenza A H5N1 Duck/MN/1525/81 virus; settings: mouse, in vivo; cited from earlier work
[2] = test system: influenza A H5N1 Duck/MN/1525/81 virus; parameters: species or system BALB/c mice; settings: mouse, in vivo
[3] = test system: H1N1/A/California/04/09 influenza virus; parameters: species or system BALB/c mice; settings: mouse, in vivo
[4] = test system: cytokine and chemokine levels in lungs of mice infected with H5N1 influenza virus; parameters: species or system BALB/c mice; settings: mouse, in vivo
H5N1 influenza virus = test system: H5N1 influenza virus; parameters: species or system BALB/c mice; settings: mouse, in vivo
[5] = test system: H1N1/A/California/04/09 influenza virus; experiment: Body weight of mice in lethal H1N1 influenza infection; type: in vivo, BALB/c mice; settings: FIG. 3A, 3B
[6] = test system: inflammatory cytokines IL2, IFN-γ, TNF-α; settings: reference [9]; cited from earlier work

For `CCOC(=O)C1=C[C@@H](OC(CC)CC)[C@H](NC(C)=O)[C@@H](N)C1` [Oseltamivir, reference compound], the “survival routinely yielded by this Oseltamivir dose” value [1] is given as 10-30%, the survival [2] is given as 70% and 50% and the survival [3] is given as 30%.
In the case of “(D-Ala)-SPMLVAYD-(D-Ala) (XSPMLVAYDX; D-Ala at both termini; (D-A)-p2TA-(D-A); (1)..(1) X equals to D-Ala; (10)..(10) X equals to D-Ala)”, the “prolongation of survival over untreated control” value [2] was “moderate, dose-dependent prolongation of survival”, the protection [2] was “no protection” and the effect on death ([2]; ip) was “delayed death”. For the same compound, the survival ([2]; ip) was 30%, the “IFN-γ level in lungs” value [4] was “significantly reduce” and the “IL-1α level in lungs” value [4] was “significantly reduce”. The “IL-1β level in lungs” value [4] was “significantly reduce”, the “IL-6 level in lungs” value [4] was “significantly reduce” and the “IL-10 level in lungs” value [4] was “did not significantly reduce”. The “monocyte chemoattractant protein-1 (MCP-1) level in lungs” value [4] was “significantly reduce”, the protection [3] was “did not prove protective” and the “arterial oxygen saturation level” value (H5N1 influenza virus) was “significantly improved”. For the same compound, the “oxygen saturation (lung function)” value (H5N1 influenza virus) was “significant improvement in lung function”, the “recovery from infection-induced weight loss” value ([5]; dose-dependent, after day 8) was “partial recovery from infection-induced weight loss” and the “weight gain by day 17” value ([5]; p2TA 10 μg per mouse, Ribavirin 75 mg/kg i.p.) was about 20%.
For HKGLDSAV [p3TA], the “biological activity compared with p2TA” value [6] is given as “biological activity similar to that of p2TA”.
In the case of SNGTIIHVK [p5TA], the “biological activity compared with p2TA” value [6] is listed as “biological activity similar to that of p2TA”.
For YVNQTDIY [p4TA], the “biological activity compared with p2TA” value [6] is given as “biological activity similar to that of p2TA”.
